In article PMC6152131, “Pharmacokinetic Study of Biotransformation Products from an Anxiolytic Fraction of Tilia americana” (Molecules : A Journal of Synthetic Chemistry and Natural …, 2017):

Columns and labels:
[1] = Stability of flavonoids and biotransformation products in mouse plasma under different handling conditions; assay type: in vitro ADME, mice; conditions: for Accuracy Bias 0 h / Observed Conc. 0 h / Accuracy Bias 8 h / Observed Conc. 8 h / Accuracy Bias 24 h / Observed Conc. 24 h: room temperature (25 °C); for Observed Conc. 0 h / Observed Conc. 8 h / Observed Conc. 24 h / Observed Conc. Autosampler (4 °C; 8 h) / Observed Conc. Long-term (−70 °C; 1 month): n = 6; for Accuracy Bias Autosampler (4 °C; 8 h) / Accuracy Bias Long-term (−70°C; 1 month) / Observed Conc. Autosampler (4 °C; 8 h) / Observed Conc. Long-term (−70 °C; 1 month): storage stability
Method: (§1) Plasma dried pulverized samples were extracted with methanol (HPLC grade, Merck). The extracts were filtered with Teflon membrane dimensions 0.45 μm by 13 mm (Millex®-LCR); 20 μL of each filtered sample was injected into the HPLC equipment. The measurements were performed in a (Waters corporation, Milford, CT, USA) 2695 HPLC with a diode array detector (Waters 2996) and processed with the Empower Pro 1.0 software. A Chromolith Performance® RP-18e 100 × 4.6 mm (Merck KGaA, Darmstadt, Germany) was used. The mobile phase consisted of a mixture of acetonitrile and water with the proportion 55:45 and a flow rate of 1 mL/min. The concentrations of the flavonoids and the biotransformation products were obtained by comparison with a pre-built calibration curve at λ = 220 nm.
[…] The investigation enclosed here expected manipulation conditions during all the sample storage and process periods, which included the stability data from the freeze/thaw, bench-top, autosampler, and long–term stability tests.
For all stability studies, fresh QC samples were evaluated by using a freshly prepared standard curve for the measurements. The concentrations obtained from all the stability studies were compared with the fresh QC samples, and the percentage concentration deviation was calculated. The analytes were considered stable in the mouse plasma when the concentration difference between the freshly prepared samples and the stability samples was less than 15%.

[2] = Plasma concentration after a single oral dose of the anxiolytic fraction (HPLC); assay type: in vivo, ICR mice; conditions: oral 200 mg/kg anxiolytic fraction, immediately after administration and over 24 h
Method: Eleven groups of ten animals each were randomly formed. All animals were orally administered with 200 mg/kg of the active fraction. Animals were anaesthetized with ether, and blood samples were obtained from the retroorbital sinus with a heparinized capillary, each group was examined at different times (0, 5, 10, 15, 30, 60, 120, 240, 480, 720, and 1440 min) after the active fraction was administered. […] Then the plasma samples were frozen and lyophilized. The dry plasma was subsequently used to extract and measure the concentration of the flavonoids and biotransformation products.
as §1
To evaluate the suitability of the assay for the pharmacokinetic studies, 200 mg/kg of the active fraction was orally administered to the animals. Ten animals were used in each group at different times (0, 5, 10, 15, 30, 60, 120, 240, 480, 720, and 1440 min). Pharmacokinetic calculations were performed using the observed data. All data was subsequently processed using the PKSolver add-in program for Microsoft Excel written in Visual Basic for Applications. All values obtained were expressed in mean ± standard deviation.

[3] = high nominal conc. (rutin 7.00; quercetin glucoside, quercitrin, tiliroside 44.37; kaempferol 4.50; m-HPAA, p-HPAA, DOPAC 31.25 µg/mL)
[4] = low nominal conc. (rutin 1.75; quercetin glucoside, quercitrin, tiliroside 11.02; kaempferol 1.12; m-HPAA, p-HPAA, DOPAC 1.95 µg/mL)
[5] = medium nominal conc. (rutin 3.50; quercetin glucoside, quercitrin, tiliroside 22.18; kaempferol 2.24; m-HPAA, p-HPAA, DOPAC 7.81 µg/mL)
[6] = high nominal conc. (7.00; 44.37; 4.50; 31.25 µg/mL)
[7] = low nominal conc. (1.75; 11.02; 1.12; 1.95 µg/mL)
[8] = medium nominal conc. (3.50; 22.18; 2.24; 7.81 µg/mL)

Row | SMILES | Accuracy Bias 0 h ([1]; high nominal conc.) | Observed Conc. 0 h [1, 3] | Accuracy Bias 0 h ([1]; low nominal conc.) | Observed Conc. 0 h [1, 4] | Accuracy Bias 0 h ([1]; medium nominal conc.) | Observed Conc. 0 h [1, 5] | Accuracy Bias 8 h ([1]; high nominal conc.) | Observed Conc. 8 h [1, 6] | Accuracy Bias 8 h ([1]; low nominal conc.) | Observed Conc. 8 h [1, 7] | Accuracy Bias 8 h ([1]; medium nominal conc.) | Observed Conc. 8 h [1, 8] | Accuracy Bias 24 h ([1]; high nominal conc.) | Accuracy Bias 24 h ([1]; low nominal conc.) | Observed Conc. 24 h [1, 7] | Accuracy Bias 24 h ([1]; medium nominal conc.) | Observed Conc. 24 h [1, 8] | Accuracy Bias Autosampler (4 °C; 8 h) ([1]; high nominal conc.) | Observed Conc. Autosampler (4 °C; 8 h) [1, 6] | Observed Conc. Long-term (−70 °C; 1 month) [1, 6] | further results
1 | O=c1c(O)c(-c2ccc(O)cc2)oc2cc(O)cc(O)c12 [Kaempferol, kaempferol] | −4.64% | 4.45 ± 0.41 µg/mL | −3.29% | 1.16 ± 0.099 µg/mL | 0.53% | 2.24 ± 0.20 µg/mL | −1.74% | 4.32 ± 0.21 µg/mL | −7.28% | 1.21 ± 0.83 µg/mL | 4.60% | 2.15 ± 0.19 µg/mL | 1.77% | −2.28% | 1.15 ± 0.098 µg/mL | −8.12% | 2.42 ± 0.22 µg/mL | 1.24% | 4.19 ± 0.37 µg/mL | 4.35 ± 0.39 µg/mL | Accuracy Bias Long-term (−70°C; 1 month) ([1]; high nominal conc.): −2.47%; Accuracy Bias Autosampler (4 °C; 8 h) ([1]; low nominal conc.): −7.77%; Accuracy Bias Long-term (−70°C; 1 month) ([1]; low nominal conc.): −2.77%; Observed Conc. Autosampler (4 °C; 8 h) [1, 7]: 1.21 ± 0.07 µg/mL; Observed Conc. Long-term (−70 °C; 1 month) [1, 7]: 1.15 ± 0.10 µg/mL; Accuracy Bias Autosampler (4 °C; 8 h) ([1]; medium nominal conc.): 0.50%; Accuracy Bias Long-term (−70°C; 1 month) ([1]; medium nominal conc.): 4.13%; Observed Conc. Autosampler (4 °C; 8 h) [1, 8]: 2.24 ± 0.20 µg/mL; Observed Conc. Long-term (−70 °C; 1 month) [1, 8]: 2.15 ± 0.19 µg/mL; flavonoids found in the plasma after oral administration [2]: not found
2 | C[C@@H]1O[C@@H](Oc2c(-c3ccc(O)c(O)c3)oc3cc(O)cc(O)c3c2=O)[C@H](O)[C@H](O)[C@H]1O [Quercitrin, quercitrin] | 0.56% | 44.12 ± 2.82 µg/mL | −2.26% | 11.27 ± 0.75 µg/mL | −3.39% | 22.94 ± 1.87 µg/mL | −1.33% | 44.96 ± 1.84 µg/mL | −4.83% | 11.56 ± 0.78 µg/mL | −2.11% | 22.65 ± 1.85 µg/mL | 1.05% | 0.30% | 10.99 ± 0.72 µg/mL | −4.15% | 23.11 ± 1.89 µg/mL | −0.17% | 44.44 ± 4.52 µg/mL | 44.17 ± 2.95 µg/mL | Observed Conc. 24 h [1, 6]: 43.90 ± 1.61 µg/mL; Accuracy Bias Autosampler (4 °C; 8 h) ([1]; low nominal conc.): −5.47%; Observed Conc. Autosampler (4 °C; 8 h) [1, 7]: 11.62 ± 1.02 µg/mL; Observed Conc. Long-term (−70 °C; 1 month) [1, 7]: 11.64 ± 0.99 µg/mL; Accuracy Bias Autosampler (4 °C; 8 h) ([1]; medium nominal conc.): −2.73%; Observed Conc. Autosampler (4 °C; 8 h) [1, 8]: 22.79 ± 2.26 µg/mL; Observed Conc. Long-term (−70 °C; 1 month) [1, 8]: 22.49 ± 1.66 µg/mL; flavonoids found in the plasma after oral administration [2]: not found
